Experimental data taken from US11000518B2, “Use of combination of VEGFR inhibitor and PARP inhibitor in preparation of medicament for treating gastric cancer” (Jiangsu Hengrui Medicine Co., Ltd., priority 2016, dated 2021).
Counter-ions that a name gives are not always drawn.

How the values were obtained:
[1] = test system: human gastric cancer PDX model STO #069; test: Efficacy on subcutaneous implantation tumor of human gastric cancer PDX model STO #069 tumor-bearing nude mice; type: in vivo, BALB/c nude mice
Procedure: Efficacy of the Composition of the Present Invention on the Subcutaneous Implantation Tumor of Human Gastric Cancer PDX Model STO #069 Tumor-Bearing Nude Mice
Test animals: BALB/c nude mice, 6-7 weeks old, female, purchased from Beijing Vital River Laboratory Animal Technology Co., Ltd., with laboratory animals use license No.: SCXK (Shanghai) 2015-0022 and animal certificate No.: 11400700166108, feeding condition: SPF grade.
Control group: solvent group.
Compound A: compound A (100 mg) was weighed, added with 0.5% carboxymethylcellulose solution (10 mL), vortex-mixed or ultrasonic-mixed until the solution was clear, and stored at 4° C., and the dose volume was 5 mL/kg;
Compound B: compound B (540 mg) was weighed and dissolved in purified water (31 mL), then added with 0.2% Tween 80 (0.18 mL) and 10% PEG 400 (9.0 mL), vortex-mixed until the solution was clear, followed by adding purified water to a solution volume of 90 mL and storing at 4° C., and the dose volume was 5 mL/kg;
Cisplatin: cisplatin (3 mg) was weighed and dissolved in normal saline (6.0 mL), the concentration of the solution was 0.5 mg/mL, and the solution was prepared to a total of 6.0 mL, stored at 4° C., and filtrated with a 0.22 μm Millipore Millex® membrane before each use;
Paclitaxel: paclitaxel (6 mg/mL, 1.5 mL) was formulated into a solution (1.5 mg/mL) with normal saline (6.0 mL) and stored at 4° C., which was freshly formulated before each use.
After the tumor grew to 600-700 mm^3, it was passaged in the nude mice, which were defined as passage 0 (P0); after implantation of tumor passage 0 (P0), the mice were defined as passage 1 (P1); the passage was thus defined according to the order continuously implanted in nude mice; the next passage generated from FP5 was defined as FP6, and so on; and the FP6 tumor tissue was used for this study.
(1) Tumor implantation: the STO #069 FP6 tumor tissue (which was pathologically diagnosed as gastric poorly differentiated adenocarcinoma) was cut into small pieces (˜30 mm^3), and implanted subcutaneously into the right side of the nude mice. After the mean tumor size was close to 150-250 mm^3, the mice were grouped and treated, a total of 7 groups, each group of 6 tumor-bearing mice.
(2) Observation and recording: the tumor volume was measured 2-3 times per week, the mice were weighed, and the data were recorded.
The tumor volume was measured twice a week with a caliper and measured in two dimensions, the unit is mm^3;
V=½×a×b^2, wherein a and b represented length and width, respectively.
T/C (%)=(T−T0)/(C−C0)×100%, wherein T and C represented the tumor volumes of the administration group and the solvent group at the end of the experiment, respectively; and T0 and C0 represented the tumor volumes of the administration group and the solvent group at the start of the experiment, respectively.
The endpoint of the experiment: The endpoint of the efficacy study was set to 21 days. If the tumor volume>2000 mm^3, or if a nude mouse lost more than 20% of its weight or was very ill and cannot get enough food or water, the nude mouse would be removed from the experimental group and euthanized.

[2] = test system: advanced prostate cancer patients with DNA repair gene mutations; details: phase II clinical trial; cited from earlier work
[3] = D 21, compound A 50 mg/kg PO QD × 21, compound B 30 mg/kg PO BID × 21, cisplatin 5 mg/kg IP QW × 3, paclitaxel 15 mg/kg IP QW × 3

N#CC1(c2ccc(NC(=O)c3cccnc3NCc3ccncc3)cc2)CCCC1 [Compound A, Apatinib mesylate]
Partial regression ([1]; 6 animals per group, same doses as TGI column): 0
Mean tumor volume (mm^3) (Mean ± SEM) D 0 ([1]; D 0 = first administration time (baseline), STO#069 nude mice, n = 6): 185.4 ± 17.0 mm^3
% T/C D 21 [1, 3]: 44.68%
% tumor growth inhibition (TGI) D 21 [1, 3]: 55.32%
Mean tumor volume (mm^3) (Mean ± SEM) D 21 [1, 3]: 465.9 ± 17.0 mm^3
tumor inhibition rate ([1]; Day 21 of administration, compound A 50 mg/kg QD×21, compound B 30 mg/kg BID×21, cisplatin 5 mg/kg QW×3, paclitaxel 15 mg/kg QW×3): 55.32%

O=C(c1cc(Cc2n[nH]c(=O)c3ccccc23)ccc1F)N1CCN(C(=O)C2CC2)CC1 [Olaparib]
response [2]: 88%
